The values below come from US10035790B2, “RORγ modulators” (BRISTOL-MYERS SQUIBB COMPANY, priority 2012, dated 2018).

The test deals with T1, ligand binding domain of human RORγ (A262-S507) (Homo sapiens, UniProt P51449).
T1 construct: made in house; host or cells: E. coli
T1 sequence (P51449 262-507): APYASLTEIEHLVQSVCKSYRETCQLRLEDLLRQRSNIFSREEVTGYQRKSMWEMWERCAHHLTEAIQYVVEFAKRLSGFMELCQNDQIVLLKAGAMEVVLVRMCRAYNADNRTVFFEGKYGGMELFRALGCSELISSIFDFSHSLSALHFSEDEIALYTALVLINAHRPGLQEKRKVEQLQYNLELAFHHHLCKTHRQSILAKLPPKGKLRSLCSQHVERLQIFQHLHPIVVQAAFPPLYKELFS
Put plainly: General RORγ SPA binding assay (competition with [3H]25-hydroxycholesterol). Conditions: RORγ SPA binding assay, inhibition of [3H]25-hydroxycholesterol binding; read-out: IC50. The method in brief:
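N-terminally His-tagged protein was expressed in E. coli and nickel-purified. Then 50 nM protein was preincubated with compound for 15 min at room temperature in PBS with 0.5% fatty acid free BSA, followed by radioligand for 15 min and copper His-tag SPA beads for 30 min. IC50 came from percent inhibition of binding.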
As to `Cc1ncc(C(C)(O)COc2cccnc2)c(C2CCN(C(=O)Cc3c(F)cccc3F)CC2)n1` (centres unmarked) [Compound D14, 2-(2,6-difluorophenyl)-1-(4-(5-(2-hydroxy-1-(pyridin-3-yloxy)propan-2-yl)-2-methylpyrimidin-4-yl)piperidin-1-yl)ethanone], the IC50 was 481 nM.

Turning to `Cc1nc(C)c(-c2ncc(-c3cccc(Cl)c3)o2)c(C2CCN(C(=O)Cc3c(F)cccc3F)CC2)n1` [Compound C66, 5-[5-(3-Chlorophenyl)-1,3-oxazol-2-yl]-4-{1-[(2,6-difluorophenyl)acetyl]piperidin-4-yl}-2,6-dimethylpyrimidine], the IC50 was determined as 65.9 nM.

Regarding `Cc1cc(C)cc(COCc2cnc(C)nc2C2CCN(C(=O)Cc3c(F)cccc3F)CC2)c1` [Compound E10, 2-(2,6-Difluorophenyl)-1-(4-(5-((3,5-dimethylbenzyloxy)methyl)-2-methylpyrimidin-4-yl)piperidin-1-yl)ethanone], the IC50 turned out to be 79 nM.

`Cc1cc(C)cc(CNC(=O)c2cnc(C)nc2C2CCN(C(=O)Cc3cc(F)ccc3F)CC2)c1` [Compound A14, 4-(1-(2-(2,5-difluorophenyl)acetyl)piperidin-4-yl)-N-(3,5-dimethylbenzyl)-2-methylpyrimidine-5-carboxamide]: the IC50 amounted to 66 nM.

With `Cc1nc(C)c(-c2nnc(-c3ccnc(C(F)(F)F)n3)o2)c(C2CCN(C(=O)Cc3ccccc3Cl)CC2)n1` [Compound C41, 4-{1-[(2-Chlorophenyl)acetyl]piperidin-4-yl}-2,6-dimethyl-5-{5-[2-(trifluoromethyl)pyrimidin-4-yl]-1,3,4-oxadiazol-2-yl}pyrimidine], the IC50 stood at 20.5 nM.

For `Cc1ncc(/C=N/Oc2cccc(C(F)(F)F)c2)c(C2CCN(C(=O)Cc3c(F)cccc3F)CC2)n1` [Compound B30, (E)-4-(1-(2-(2,6-Difluorophenyl)acetyl)piperidin-4-yl)-2-methylpyrimidine-5-carbaldehyde O-3-(trifluoromethyl)phenyl oxime], the IC50 was found to be 9.7 nM.

On to `Cc1ncc(C(=O)NCc2cccc(OC(F)(F)F)c2)c(C2CCN(C(=O)Cc3c(F)cccc3F)CC2)n1` [Compound A53, 4-(1-(2-(2,6-difluorophenyl)acetyl)piperidin-4-yl)-2-methyl-N-(3-(trifluoromethoxy)benzyl)pyrimidine-5-carboxamide], for which the IC50 worked out at 8.1 nM.

Turning to `Cc1ncc(C(C)(F)COc2cccc(C(F)(F)F)n2)c(C2CCN(C(=O)Nc3c(F)cccc3C(F)(F)F)CC2)n1` (centres unmarked) [Compound E13, 4-[5-(1-Fluoro-1-methyl-2-{[6-(trifluoromethyl)pyridin-2-yl]oxy}ethyl)-2-methylpyrimidin-4-yl]-N-[2-fluoro-6-(trifluoromethyl)phenyl]piperidine-1-carboxamide], the IC50 amounted to 13.2 nM.

For the molecule `CC(=O)Nc1nc(C)c(C(O)COc2cccc(C(F)(F)F)n2)c(C2CCN(C(=O)Nc3c(F)cccc3F)CC2)n1` (centres unmarked) [Compound N10, 4-[2-(Acetylamino)-5-(1-hydroxy-2-{1-[6-(trifluoromethyl)pyridin-2-yl]oxy}ethyl)-6-methylpyrimidin-4-yl]-N-(2,6-difluorophenyl)piperidine-1-carboxamide], the IC50 was 20.9 nM.

`CN(C)c1ncc(C(C)(O)COc2ccnc(C(F)(F)F)n2)c(C2CCN(C(=O)Nc3c(F)cccc3F)CC2)n1` (centres unmarked) [Compound D38, N-(2,6-Difluorophenyl)-4-[2-(dimethylamino)-5-(1-hydroxy-1-methyl-2-{[2-(trifluoromethyl)pyrimidin-4-yl]oxy}ethyl)pyrimidin-4-yl]piperidine-1-carboxamide]: the IC50 amounted to 25.9 nM.

As for `Cc1nc(C)c(-c2nnc(-c3ccc(Cl)nc3)o2)c(C2CCN(C(=O)Cc3c(F)cccc3F)CC2)n1` [Compound C23, 1-(4-(5-(5-(6-chloropyridin-3-yl)-1,3,4-oxadiazol-2-yl)-2,6-dimethylpyrimidin-4-yl)piperidin-1-yl)-2-(2,6-difluorophenyl)ethanone], the IC50 was found to be 5290 nM.

As for `Cc1ncc(C(O)(CN)COc2cccc(C(F)(F)F)n2)c(C2CCN(C(=O)Cc3c(F)cccc3F)CC2)n1` (centres unmarked) [Compound N35, 1-Amino-2-(4-{1-[(2,6-difluorophenyl)acetyl]piperidin-4-yl}-2-methylpyrimidin-5-yl)-3-{[6-(trifluoromethyl)pyridin-2-yl]oxy}propan-2-ol], the half-maximal inhibitory concentration (IC50) came to 5.5 nM.

Turning to `Cc1cc(C)cc(OCC(C)(F)c2cnc(C)nc2C2CCN(C(=O)Cc3c(F)cccc3F)CC2)c1` (centres unmarked) [Compound E14, 4-{1-[(2,6-Difluorophenyl)acetyl]piperidin-4-yl}-5-{2-[(3,5-dimethylphenyl)oxy]-1-fluoro-1-methylethyl}-2-methylpyrimidine], the IC50 turned out to be 28 nM.

In the case of `COc1ccccc1CC(=O)N1CCC(c2nc(C)ncc2C(=O)NCc2cc(C)cc(C)c2)CC1` [Compound A10, N-(3,5-dimethylbenzyl)-4-(1-(2-(2-methoxyphenyl)acetyl)piperidin-4-yl)-2-methylpyrimidine-5-carboxamide], the IC50 was 33.1 nM.

Regarding `Cc1nc(C)c(-c2nc(-c3cccc(C(F)(F)F)c3)no2)c(C2CCN(C(=O)Nc3c(F)cccc3C(F)(F)F)CC2)n1` [Compound C64, 4-(2,6-Dimethyl-5-{3-[3-(trifluoromethyl)phenyl]-1,2,4-oxadiazol-5-yl}pyrimidin-4-yl)-N-[2-fluoro-6-(trifluoromethyl)phenyl]piperidine-1-carboxamide], the IC50 was 183 nM.

Regarding `Cc1ncc(C(C)(O)COc2cccc(C(F)(F)F)n2)c(C2CCN(C(=O)Nc3c(F)cccc3F)CC2)n1` (centres unmarked) [Compound D25, N-(2,6-difluorophenyl)-4-[5-(1-hydroxy-1-methyl-2-{[6-(trifluoromethyl)pyridin-2-yl]oxy}ethyl)-2-methylpyrimidin-4-yl]piperidine-1-carboxamide], the concentration for half-maximal inhibition (IC50) was determined as 8.7 nM.

With `Cc1ncc(C(C)(O)CN(C)c2ccnc(C(F)(F)F)n2)c(C2CCN(C(=O)Nc3c(F)cccc3F)CC2)n1` (centres unmarked) [Compound D19, N-(2,6-Difluorophenyl)-4-[5-(1-hydroxy-1-methyl-2-{methyl[2-(trifluoromethyl)pyrimidin-4-yl]amino}ethyl)-2-methylpyrimidin-4-yl]piperidine-1-carboxamide], the concentration for half-maximal inhibition (IC50) was found to be 196 nM.

Take `Cc1nc(N)nc(C2CCN(C(=O)Nc3c(F)cccc3F)CC2)c1C(=O)COc1ccnc(C(F)(F)F)n1` [Compound M10, 4-[2-Amino-6-methyl-5-({[2-(trifluoromethyl)pyrimidin-4-yl]oxy}acetyl)pyrimidin-4-yl]-N-(2,6-difluorophenyl)piperidine-1-carboxamide]: the concentration for half-maximal inhibition (IC50) worked out at 5.3 nM.

For the molecule `Cc1ncc(C(=O)NCc2cccc(Cl)c2)c(C2(F)CCN(C(=O)Cc3c(F)cccc3F)CC2)n1` [Compound A103, N-(3-Chlorobenzyl)-4-(1-(2-(2,6-difluorophenyl)acetyl)-4-fluoropiperidin-4-yl)-2-methylpyrimidine-5-carboxamide], the IC50 was found to be 3.4 nM.

On to `Cc1ncc(C(C)(O)CNc2cccc(Cl)c2)c(C2CCN(C(=O)Cc3c(F)cccc3F)CC2)n1` (centres unmarked) [Compound D1, 1-(4-(5-(1-(3-Chlorophenylamino)-2-hydroxypropan-2-yl)-2-methylpyrimidin-4-yl)piperidin-1-yl)-2-(2,6-difluorophenyl)ethanone], for which the IC50 stood at 2.6 nM.
